From ChEMBL document CHEMBL1201862, “PubChem BioAssay data set” (2004)
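How tested: cells in 96-well plates exposed to compound for 48 hours at five concentrations. GI50 = concentration required for 50% inhibition of growth.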 Active and inactive are the calls of the source. Rule as the data show it: active = GI50 up to about 1.1 µM and inactive = higher.

Key:
Experiment in all cases: inhibition of tumour cell growth, NCI panel, 48 h
[1] = system: SK-MEL-2
[2] = system: KM12
[3] = system: HL-60
[4] = system: Malme-3M
[5] = system: A549
[6] = system: SN12C
[7] = system: ACHN
[8] = system: DLD-1
[9] = system: SK-MEL-5
[10] = system: NCI-H460
[11] = system: EKVX
[12] = system: RXF 631
[13] = system: KM-20L2
[14] = system: OVCAR-3
[15] = system: CAKI-1
[16] = system: LXFL 529
[17] = system: SF-268
[18] = system: XF498
[19] = system: NCI-H23
[20] = system: SW-620
[21] = system: LOX IMVI
[22] = system: OVCAR-4
[23] = system: TK-10
[24] = system: DMS-273
[25] = system: NCI-H226
[26] = system: SF-539
[27] = system: SNB-19
[28] = system: M14
[29] = system: HT-29
[30] = system: UACC-257
[31] = system: SK-MEL-28
[32] = system: IGROV-1
[33] = system: SNB-75
[34] = system: K562
[35] = system: OVCAR-5
[36] = system: HCT-15
[37] = system: MOLT-4
[38] = system: U-251
[39] = system: A498
[40] = system: UACC-62
[41] = system: M19-MEL
[42] = system: HCC 2998
[43] = system: RPMI-8226
[44] = system: SK-OV-3
[45] = system: UO-31
[46] = system: COLO 205
[47] = system: CCRF-CEM
[48] = system: HOP-18
[49] = system: RXF 393
[50] = system: OVCAR-8
[51] = system: SNB-78
[52] = system: 786-0
[53] = system: DMS-114
[54] = system: HCT-116
[55] = system: SF-295
[56] = system: HOP-62
[57] = system: HOP-92
[58] = system: NCI-H522

## Cc1cccc(C)c1NC(=O)CCC/C(CC(=O)c1ccc(F)cc1)=N\NC(=O)C(=O)NN
[1]
  GI50: > 100 µM (inactive)
[2]
  GI50: > 100 µM (inactive)
[3]
  GI50: > 100 µM (inactive)
[4]
  GI50: > 100 µM (inactive)
[5]
  GI50: > 100 µM (inactive)
[6]
  GI50: > 100 µM (inactive)
[7]
  GI50: > 100 µM (inactive)
[8]
  GI50: > 100 µM (inactive)
[9]
  GI50: > 100 µM (inactive)
[10]
  GI50: > 100 µM (inactive)
[11]
  GI50: > 100 µM (inactive)
[12]
  GI50: > 100 µM (inactive)
[13]
  GI50: > 100 µM (inactive)
[14]
  GI50: > 100 µM (inactive)
[15]
  GI50: > 100 µM (inactive)
[16]
  GI50: > 100 µM (inactive)
[17]
  GI50: > 100 µM (inactive)
[18]
  GI50: > 100 µM (inactive)
[19]
  GI50: > 100 µM (inactive)
[20]
  GI50: > 100 µM (inactive)
[21]
  GI50: > 100 µM (inactive)
[22]
  GI50: > 100 µM (inactive)
[23]
  GI50: > 100 µM (inactive)
[24]
  GI50: > 100 µM (inactive)
[25]
  GI50: > 100 µM (inactive)
[26]
  GI50: > 100 µM (inactive)
[27]
  GI50: > 100 µM (inactive)
[28]
  GI50: > 100 µM (inactive)
[29]
  GI50: > 100 µM (inactive)
[30]
  GI50: > 100 µM (inactive)
[31]
  GI50: > 100 µM (inactive)
[32]
  GI50: > 100 µM (inactive)
[33]
  GI50: > 100 µM (inactive)
[34]
  GI50: > 100 µM (inactive)
[35]
  GI50: > 100 µM (inactive)
[36]
  GI50: > 100 µM
[37]
  GI50: > 100 µM (inactive)
[38]
  GI50: > 100 µM (inactive)
[39]
  GI50: > 100 µM (inactive)
[40]
  GI50: > 100 µM (inactive)
[41]
  GI50: > 100 µM (inactive)
[42]
  GI50: > 100 µM (inactive)
[43]
  GI50: > 100 µM (inactive)
[44]
  GI50: > 100 µM (inactive)
[45]
  GI50: > 100 µM (inactive)
[46]
  GI50: > 100 µM (inactive)
[47]
  GI50: > 100 µM (inactive)
[48]
  GI50: > 100 µM (inactive)
[49]
  GI50: 21.9 µM (inactive)
[50]
  GI50: > 100 µM (inactive)
[51]
  GI50: > 100 µM (inactive)
[52]
  GI50: > 100 µM (inactive)
[53]
  GI50: > 100 µM (inactive)
[54]
  GI50: > 100 µM (inactive)
[55]
  GI50: > 100 µM (inactive)

## Cc1cccc(C2=NC(C)(C)C(C)(C)N=C2c2cccc(C)n2)n1
[1]
  GI50: > 100 µM (inactive)
[2]
  GI50: > 100 µM (inactive)
[3]
  GI50: 53.6 µM (inactive)
[4]
  GI50: > 100 µM (inactive)
[5]
  GI50: > 100 µM (inactive)
[7]
  GI50: > 100 µM (inactive)
[8]
  GI50: 98.6 µM (inactive)
[9]
  GI50: > 100 µM (inactive)
[10]
  GI50: > 100 µM (inactive)
[11]
  GI50: > 100 µM (inactive)
[12]
  GI50: > 100 µM (inactive)
[13]
  GI50: 84.1 µM (inactive)
[14]
  GI50: 44.1 µM (inactive)
[15]
  GI50: > 100 µM (inactive)
[16]
  GI50: 70.5 µM (inactive)
[56]
  GI50: > 100 µM (inactive)
[57]
  GI50: > 100 µM (inactive)
[17]
  GI50: > 100 µM (inactive)
[18]
  GI50: > 100 µM (inactive)
[19]
  GI50: 30.1 µM (inactive)
[20]
  GI50: > 100 µM (inactive)
[21]
  GI50: > 100 µM (inactive)
[22]
  GI50: > 100 µM (inactive)
[23]
  GI50: > 100 µM (inactive)
[24]
  GI50: > 100 µM (inactive)
[25]
  GI50: > 100 µM (inactive)
[26]
  GI50: > 100 µM (inactive)
[27]
  GI50: > 100 µM (inactive)
[28]
  GI50: 71.6 µM (inactive)
[29]
  GI50: 26.1 µM (inactive)
[30]
  GI50: 45.4 µM (inactive)
[31]
  GI50: > 100 µM (inactive)
[32]
  GI50: 38.5 µM (inactive)
[33]
  GI50: > 100 µM (inactive)
[34]
  GI50: 41.8 µM (inactive)
[35]
  GI50: > 100 µM (inactive)
[36]
  GI50: > 100 µM
[38]
  GI50: > 100 µM (inactive)
[39]
  GI50: > 100 µM (inactive)
[40]
  GI50: > 100 µM (inactive)
[41]
  GI50: > 100 µM (inactive)
[42]
  GI50: > 100 µM (inactive)
[43]
  GI50: 34.6 µM (inactive)
[44]
  GI50: > 100 µM (inactive)
[45]
  GI50: > 100 µM (inactive)
[46]
  GI50: 67.5 µM (inactive)
[47]
  GI50: 71 µM (inactive)
[48]
  GI50: > 100 µM (inactive)
[49]
  GI50: > 100 µM (inactive)
[50]
  GI50: > 100 µM (inactive)
[58]
  GI50: > 100 µM (inactive)
[51]
  GI50: > 100 µM (inactive)
[52]
  GI50: > 100 µM (inactive)
[53]
  GI50: 30.8 µM (inactive)
[54]
  GI50: 35.4 µM (inactive)
[55]
  GI50: > 100 µM (inactive)
